Source: US10781204B2, “TYK2 inhibitors and uses thereof” (Nimbus Lakshmi, Inc., priority 2015, dated 2020)

Key:
[1] = tested on: JAK2-pSTAT5 (GM-CSF induced pSTAT5); test: GM-CSF induced pSTAT5 in human PBMC; type: cell-based; details: 5 ng/mL GM-CSF
How it was run: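 Thawed human PBMC, 200,000 per well in serum-containing medium, were preincubated 1 hr at 37 C with compound in 0.1% DMSO. GM-CSF at 5 ng/mL final was added for 20 minutes, then pSTAT5 and total STAT5 in lysates were measured by MSD immunoassay.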

JAK2 = JAK2 (Homo sapiens (Human), UniProt O60674); test: JAK2 radioactive kinase assay; type: biochemical; details: ATP 10 μM
Sequence of JAK2 (O60674 whole entry): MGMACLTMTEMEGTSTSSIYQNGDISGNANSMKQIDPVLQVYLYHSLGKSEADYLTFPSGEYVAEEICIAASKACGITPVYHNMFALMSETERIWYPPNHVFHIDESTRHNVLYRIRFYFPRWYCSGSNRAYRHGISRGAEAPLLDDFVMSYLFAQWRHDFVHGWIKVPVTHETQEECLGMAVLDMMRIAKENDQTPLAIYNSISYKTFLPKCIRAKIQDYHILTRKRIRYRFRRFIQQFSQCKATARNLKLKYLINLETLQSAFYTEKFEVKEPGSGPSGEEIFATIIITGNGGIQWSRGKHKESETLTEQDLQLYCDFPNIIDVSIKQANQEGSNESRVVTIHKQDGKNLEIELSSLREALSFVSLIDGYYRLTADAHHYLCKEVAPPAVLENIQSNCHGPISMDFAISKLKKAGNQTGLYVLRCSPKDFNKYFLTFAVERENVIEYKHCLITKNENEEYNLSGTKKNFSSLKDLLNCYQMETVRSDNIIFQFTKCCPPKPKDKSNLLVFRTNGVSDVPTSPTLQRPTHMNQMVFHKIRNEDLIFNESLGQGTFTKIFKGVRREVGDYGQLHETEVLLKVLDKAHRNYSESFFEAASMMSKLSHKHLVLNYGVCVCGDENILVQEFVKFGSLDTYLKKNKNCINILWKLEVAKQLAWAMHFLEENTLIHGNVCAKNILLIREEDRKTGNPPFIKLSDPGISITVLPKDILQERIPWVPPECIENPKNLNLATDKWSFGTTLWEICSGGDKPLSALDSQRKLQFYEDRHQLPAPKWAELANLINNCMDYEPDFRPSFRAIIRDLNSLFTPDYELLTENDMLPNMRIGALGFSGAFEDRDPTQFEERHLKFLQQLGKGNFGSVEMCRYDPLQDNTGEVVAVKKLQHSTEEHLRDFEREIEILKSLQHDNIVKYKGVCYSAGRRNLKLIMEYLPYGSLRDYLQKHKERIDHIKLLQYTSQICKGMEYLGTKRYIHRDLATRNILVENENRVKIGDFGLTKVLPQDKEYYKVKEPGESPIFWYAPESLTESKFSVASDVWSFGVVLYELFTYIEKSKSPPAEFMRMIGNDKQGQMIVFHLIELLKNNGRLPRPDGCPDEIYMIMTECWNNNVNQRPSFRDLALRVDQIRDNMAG
How it was run: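 Radiometric assay in Hepes pH 7.5, MgCl2, EGTA, Brij35, BSA, DTT, 1% DMSO, with 10 μM [33P]ATP, 120 min at room temp; P81 paper capture and counting. […]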

[2] = tested on: Tyk2-pSTAT4 (IL-12 induced pSTAT4); test: IL-12 induced pSTAT4 in human PBMC; type: cell-based; details: 1.7 ng/mL IL-12, 30 minutes
How it was run: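 pSTAT4 and total STAT4 quantified by MSD in cell lysates after 30 minutes of 1.7 ng/mL IL-12 stimulation. Beforehand, compound (0.1% DMSO final) sat 1 hr at 37 C on 200,000 thawed buffy-coat PBMC per well in serum-containing medium.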

TYK2 = TYK2 (Homo sapiens (Human), UniProt P29597); test: Tyk2 radioactive kinase assay; type: biochemical; details: ATP 10 μM
Sequence of TYK2 (P29597 whole entry): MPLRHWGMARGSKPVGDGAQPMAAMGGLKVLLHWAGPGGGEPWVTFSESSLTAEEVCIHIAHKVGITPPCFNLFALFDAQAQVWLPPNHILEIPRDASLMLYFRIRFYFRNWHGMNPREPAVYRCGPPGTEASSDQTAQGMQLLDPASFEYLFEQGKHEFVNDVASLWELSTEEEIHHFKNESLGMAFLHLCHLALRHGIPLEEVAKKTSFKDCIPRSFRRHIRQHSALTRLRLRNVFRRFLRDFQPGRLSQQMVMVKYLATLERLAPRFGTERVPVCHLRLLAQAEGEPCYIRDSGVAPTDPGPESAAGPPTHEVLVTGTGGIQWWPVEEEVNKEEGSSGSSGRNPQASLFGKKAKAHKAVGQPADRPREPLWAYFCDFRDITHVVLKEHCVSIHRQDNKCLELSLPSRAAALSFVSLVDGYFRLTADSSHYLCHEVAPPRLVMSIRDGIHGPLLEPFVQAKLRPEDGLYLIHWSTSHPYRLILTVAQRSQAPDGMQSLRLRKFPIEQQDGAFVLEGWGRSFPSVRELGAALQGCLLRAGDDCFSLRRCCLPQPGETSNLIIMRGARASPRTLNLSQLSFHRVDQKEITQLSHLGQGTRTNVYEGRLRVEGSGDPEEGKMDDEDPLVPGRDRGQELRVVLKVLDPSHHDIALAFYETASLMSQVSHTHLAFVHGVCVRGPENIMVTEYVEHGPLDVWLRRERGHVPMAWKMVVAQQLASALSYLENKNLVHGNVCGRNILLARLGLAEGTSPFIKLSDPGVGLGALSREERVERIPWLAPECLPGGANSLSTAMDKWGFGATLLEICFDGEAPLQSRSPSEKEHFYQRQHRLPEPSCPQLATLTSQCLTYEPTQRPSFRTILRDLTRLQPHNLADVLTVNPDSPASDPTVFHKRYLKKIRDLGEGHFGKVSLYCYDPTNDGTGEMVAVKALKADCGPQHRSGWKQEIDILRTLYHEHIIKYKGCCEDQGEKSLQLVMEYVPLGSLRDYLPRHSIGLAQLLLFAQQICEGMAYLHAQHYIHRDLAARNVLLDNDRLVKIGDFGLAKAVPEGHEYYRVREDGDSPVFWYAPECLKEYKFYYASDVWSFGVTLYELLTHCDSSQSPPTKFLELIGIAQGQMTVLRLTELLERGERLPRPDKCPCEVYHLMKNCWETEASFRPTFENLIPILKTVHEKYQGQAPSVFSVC
How it was run: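 Recombinant human TYK2 (Invitrogen) was mixed with 20 μM peptide substrate in a buffer of 20 mM Hepes pH 7.5, 10 mM MgCl2, 1 mM EGTA, 0.02% Brij35, 0.02 mg/mL BSA, 0.1 mM […], 2 mM DTT and 1% DMSO, and compounds in DMSO were added. Adding ^33P-ATP (10 μM ATP) started the reaction, which ran 120 min at room temperature. Mixtures were then spotted onto P81 ion-exchange paper, washed thoroughly in 0.75% phosphoric acid, and counted for radioactivity.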

Compound | EC50 ([1]; Homo sapiens, PBMC, 20 min) [nM] | Ki (JAK2) [nM] | EC50 ([2]; Homo sapiens, PBMC, 0.5 h) [nM] | Ki (TYK2) [nM] | EC50 ([1]; 20 minutes) [nM] | EC50 [2] [nM]
[2H]C1([2H])N(c2ccn(-c3cc(-c4c(F)cccc4C#N)nc4c3C(=O)NC4)n2)C([2H])([2H])[C@](C)(O)C([2H])([2H])C1([2H])[2H] [I-220, (R)-3-fluoro-2-(4-(3-(3-hydroxy-3-methylpiperidin-1-yl-2,2,4,4,5,5,6,6-d8)-1H-pyrazol-1-yl)-5-oxo-6,7-dihydro-5H-pyrrolo[3,4-b]pyridin-2-yl)benzonitrile] | > 2000 | 10 to 100 | 100 to 2000 | 0.1 to 10 |  | 
N#Cc1cccc(F)c1-c1cc(-n2cc(F)c(N3CC[C@H](O)C3)n2)c2c(n1)CNC2=O [I-190, (S)-3-fluoro-2-(4-(4-fluoro-3-(3-hydroxypyrrolidin-1-yl)-1H-pyrazol-1-yl)-5-oxo-6,7-dihydro-5H-pyrrolo[3,4-b]pyridin-2-yl)benzonitrile] | 100 to 2000 | 10 to 100 | 100 to 2000 | 0.1 to 10 |  | 
N#Cc1cccc(F)c1-c1cc(-n2ccc(N3CCC[C@@H](N4CCOCC4)C3)n2)c2c(n1)CNC2=O [I-158, (R)-3-fluoro-2-(4-(3-(3-morpholinopiperidin-1-yl)-1H-pyrazol-1-yl)-5-oxo-6,7-dihydro-5H-pyrrolo[3,4-b]pyridin-2-yl)benzonitrile] | > 2000 | 10 to 100 | 100 to 2000 | 0.1 to 10 |  | 
N#Cc1cccc(F)c1-c1cc(-n2ccc(N3C[C@H](O)C[C@H]3CO)n2)c2c(n1)CNC2=O [I-214, 3-fluoro-2-(4-(3-((2S,4R)-4-hydroxy-2-(hydroxymethyl)pyro-lidin-1-yl)-1H-pyrazol-1-yl)-5-oxo-6,7-dihydro-5H-pyrrolo[3,4-b]pyridin-2-yl)benzonitrile] | > 2000 | 10 to 100 | 100 to 2000 | 0.1 to 10 |  | 
CC(=O)Nc1ccn(-c2cc(-c3c(F)cccc3C#N)nc3c2C(=O)NC3)n1 [I-212, N-(1-(2-(2-cyano-6-fluorophenyl)-5-oxo-6,7-dihydro-5H-pyrrolo[3,4-b]pyridin-4-yl)-1H-pyrazol-3-yl)acetamide] | > 2000 | 100 to 1000 | 100 to 2000 | 0.1 to 10 |  | 
N#Cc1cccc(F)c1-c1cc(-n2ccc(N3CCCC(C(=O)N4CCCC4)C3)n2)c2c(n1)CNC2=O (stereo not drawn) [I-152, 3-fluoro-2-(5-oxo-4-(3-(3-(pyrrolidine-1-carbonyl)piperidin-1-yl)-1H-pyrazol-1-yl)-6,7-dihydro-5H-pyrrolo[3,4-b]pyridin-2-yl)benzonitrile] | > 2000 | 0.1 to 10 | 100 to 2000 | 0.1 to 10 |  | 
CN1CCN([C@@H]2CCCN(c3ccn(-c4cc(-c5c(F)cccc5C#N)nc5c4C(=O)NC5)n3)C2)CC1 [I-156, (R)-3-fluoro-2-(4-(3-(3-(4-methylpiperazin-1-yl)piperidin-1-yl)-1H-pyrazol-1-yl)-5-oxo-6,7-dihydro-5H-pyrrolo[3,4-b]pyridin-2-yl)benzonitrile] | 100 to 2000 | 10 to 100 | 100 to 2000 | 0.1 to 10 |  | 
N#Cc1cccc(F)c1-c1cc(-n2ccc(N3CCC4(C3)OCCO4)n2)c2c(n1)CNC2=O [I-100, 2-(4-(3-(1,4-dioxa-7-azaspiro[4.4]nonan-7-yl)-1H-pyrazol-1-yl)-5-oxo-6,7-dihydro-5H-pyrrolo[3,4-b]pyridin-2-yl)-3-fluorobenzonitrile] | 100 to 2000 | 0.1 to 10 | 30 to 100 | 0.009 to 0.1 |  | 
N#Cc1cccc(F)c1-c1cc(-n2ccc(N3CCOC[C@@H]3CO)n2)c2c(n1)CNC2=O [I-163, (S)-3-fluoro-2-(4-(3-(3-(hydroxymethyl)morpholino)-1H-pyrazol-1-yl)-5-oxo-6,7-dihydro-5H-pyrrolo[3,4-b]pyridin-2-yl)benzonitrile] | 100 to 2000 | 0.1 to 10 | 100 to 2000 | 0.1 to 10 |  | 

Results, then the compound that gave them:

EC50 ([1]; Homo sapiens, PBMC, 20 min) [nM] | Ki (JAK2) [nM] | EC50 ([2]; Homo sapiens, PBMC, 0.5 h) [nM] | Ki (TYK2) [nM] | EC50 ([1]; 20 minutes) [nM] | EC50 [2] [nM] | Compound
> 2000 | 0.1 to 10 | 100 to 2000 | 0.1 to 10 |  |  | CS(=O)(=O)N[C@H]1CCN(c2ccn(-c3cc(-c4c(F)cccc4C#N)nc4c3C(=O)NC4)n2)C1 [I-135, (S)-N-(1-(1-(2-(2-cyano-6-fluorophenyl)-5-oxo-6,7-dihydro-5H-pyrrolo[3,4-b]pyridin-4-yl)-1H-pyrazol-3-yl)pyrrolidin-3-yl)methanesulfonamide]
100 to 2000 | 10 to 100 | 100 to 2000 | 0.1 to 10 |  |  | [2H]C([2H])([2H])O[C@@H]1CN(c2ccn(-c3cc(-c4c(F)cccc4C#N)nc4c3C(=O)NC4)n2)C[C@@H]1O [I-223, 3-fluoro-2-(4-(3-((3S,4R)-3-hydroxy-4-(methoxy-d3)pyrrolidin-1-yl)-1H-pyrazol-1-yl)-5-oxo-6,7-dihydro-5H-pyrrolo[3,4-b]pyridin-2-yl)benzonitrile]
 | 10 to 100 |  | 0.1 to 10 | 100 to 2000 | 100 to 2000 | CO[C@@H]1CCN(c2ccn(-c3cc(-c4c(F)cccc4C#N)nc4c3C(=O)NC4)n2)C[C@]1(C)O [I-228, 3-fluoro-2-(4-(3-((3S,4R)-3-hydroxy-4-methoxy-3-methylpiperidin-1-yl)-1H-pyrazol-1-yl)-5-oxo-6,7-dihydro-5H-pyrrolo[3,4-b]pyridin-2-yl)benzonitrile]
100 to 2000 | 0.1 to 10 | 100 to 2000 | 0.1 to 10 |  |  | N#Cc1cccc(F)c1-c1cc(-n2ccc(N3CCC[C@H](O)C3)n2)c2c(n1)CNC2=O [I-70, (S)-3-fluoro-2-(4-(3-(3-hydroxypiperidin-1-yl)-1H-pyrazol-1-yl)-5-oxo-6,7-dihydro-5H-pyrrolo[3,4-b]pyridin-2-yl)benzonitrile]
 | 10 to 100 |  | 0.1 to 10 | > 2000 | 100 to 2000 | CO[C@@H]1CCN(c2ccn(-c3cc(-c4c(F)cccc4C#N)nc4c3C(=O)NC4)n2)C[C@H]1O [I-211, 3-fluoro-2-(4-(3-((3R,4R)-3-hydroxy-4-methoxypiperidin-1-yl)-1H-pyrazol-1-yl)-5-oxo-6,7-dihydro-5H-pyrrolo[3,4-b]pyridin-2-yl)benzonitrile]
> 2000 | 10 to 100 | 100 to 2000 | 0.1 to 10 |  |  | N#Cc1cccc(F)c1-c1cc(-n2ccc(N3CCCC(C(=O)O)C3)n2)c2c(n1)CNC2=O (stereo not drawn) [I-91, 1-(1-(2-(2-cyano-6-fluorophenyl)-5-oxo-6,7-dihydro-5H-pyrrolo[3,4-b]pyridin-4-yl)-1H-pyrazol-3-yl)piperidine-3-carboxylic acid]
100 to 2000 | 10 to 100 | 30 to 100 | 0.1 to 10 |  |  | N#Cc1cccc(F)c1-c1cc(-n2ccc(N3CCC[C@H](CO)C3)n2)c2c(n1)CNC2=O [I-98, (S)-3-fluoro-2-(4-(3-(3-(hydroxymethyl)piperidin-1-yl)-1H-pyrazol-1-yl)-5-oxo-6,7-dihydro-5H-pyrrolo[3,4-b]pyridin-2-yl)benzonitrile]
 | 10 to 100 |  | 0.1 to 10 | 100 to 2000 | 30 to 100 | CO[C@@H]1CN(c2ccn(-c3cc(-c4c(F)cccc4C#N)nc4c3C(=O)NC4)n2)CC[C@H]1O [I-201, 3-fluoro-2-(4-(3-((3R,4R)-4-hydroxy-3-methoxypiperidin-1-yl)-1H-pyrazol-1-yl)-5-oxo-6,7-dihydro-5H-pyrrolo[3,4-b]pyridin-2-yl)benzonitrile]
100 to 2000 | 0.1 to 10 | 100 to 2000 | 0.1 to 10 |  |  | CO[C@H]1CN(c2ccn(-c3cc(-c4c(F)cccc4C#N)nc4c3C(=O)NC4)n2)C[C@@]1(C)OC [I-230, 2-(4-(3-((3R,4S)-3,4-dimethoxy-3-methylpyrrolidin-1-yl)-1H-pyrazol-1-yl)-5-oxo-6,7-dihydro-5H-pyrrolo[3,4-b]pyridin-2-yl)-3-fluorobenzonitrile]
100 to 2000 | 0.1 to 10 | 30 to 100 | 0.009 to 0.1 |  |  | N#Cc1cccc(F)c1-c1cc(-n2ccc(N3CCC(O)C3)n2)c2c(n1)CNC2=O (stereo not drawn) [I-76, 3-fluoro-2-(4-(3-(3-hydroxypyrrolidin-1-yl)-1H-pyrazol-1-yl)-5-oxo-6,7-dihydro-5H-pyrrolo[3,4-b]pyridin-2-yl)benzonitrile]
100 to 2000 | 0.1 to 10 | 100 to 2000 | 0.009 to 0.1 |  |  | N#Cc1cccc(F)c1-c1cc(-n2ccc(N3C[C@H]4CC[C@@H](C3)O4)n2)c2c(n1)CNC2=O [I-188, 2-(4-(3-((1R,5S)-8-oxa-3-azabicyclo[3.2.1]octan-3-yl)-1H-pyrazol-1-yl)-5-oxo-6,7-dihydro-5H-pyrrolo[3,4-b]pyridin-2-yl)-3-fluorobenzonitrile]
100 to 2000 | 10 to 100 | 100 to 2000 | 0.1 to 10 |  |  | N#Cc1cccc(F)c1-c1cc(-n2ccc(N3CCC[C@H](C(N)=O)C3)n2)c2c(n1)CNC2=O [I-126, (S)-1-(1-(2-(2-cyano-6-fluorophenyl)-5-oxo-6,7-dihydro-5H-pyrrolo[3,4-b]pyridin-4-yl)-1H-pyrazol-3-yl)piperidine-3-carboxamide]
